Data set [1] deals with T1, recombinant S3H (Arabidopsis thaliana, UniProt Q9ZSA8).
T1 construct: His (N); made in house; host or cells: E. coli BL21 (DE3, pLys3)
T1 sequence (Q9ZSA8 1-349): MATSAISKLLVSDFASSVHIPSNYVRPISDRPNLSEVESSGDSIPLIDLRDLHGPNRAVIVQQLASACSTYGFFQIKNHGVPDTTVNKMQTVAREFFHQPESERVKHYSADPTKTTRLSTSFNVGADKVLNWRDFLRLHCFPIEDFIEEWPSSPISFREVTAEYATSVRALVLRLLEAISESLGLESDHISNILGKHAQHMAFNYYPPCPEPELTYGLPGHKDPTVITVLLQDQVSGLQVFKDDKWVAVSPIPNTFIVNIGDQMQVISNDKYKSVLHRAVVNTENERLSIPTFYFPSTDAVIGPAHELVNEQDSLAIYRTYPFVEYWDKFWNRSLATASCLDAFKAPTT
The data set can be described thus: Enzyme assay of recombinant S3H (substrate specificity and kinetics). Type of data set: biochemical. The note with it: for S3H enzyme activity on substrate (in words): 30-min reaction under the same conditions as those for SA. The protocol:
(§1) The construct pET28a-S3H was introduced into E. coli BL21 (DE3, pLys3, Invitrogen, Carlsbad, Calif.). The bacterial cells containing pET28a-S3H were induced with 0.5 mM isopropyl β-D-1-thiogalactoside (IPTG) for 24 hr at 18° C., and were collected and disrupted by sonication in lysis buffer (20 mM Tris-Cl, pH7.5, 2 mM EDTA, 2 mM β-mercaptoethanol, 1 mM PMSF, 10 mM Imidazole, 0.1% Triton X-100, 20 mM sodium ascorbate). All subsequent purification procedures involving His-Bind® resin were performed at 4° C. according to the manufacturer (Novagen, Madison, Wis.). The recombinant protein concentration was quantified using Quick Start Bradford Dye Reagent (Biorad, Hercules, Calif.). 2 mM DTT was added to the enzyme solution and the protein was immediately kept in a −80° C. refrigerator.
(§2) The enzyme assay was performed using a method modified from Satio et al. (Saito et al., “Direct Evidence for Anthocyanidin Synthase as a 2-Oxoglutarate-Dependent Oxygenase: Molecular Cloning and Functional Expression of cDNA From a Red Forma of Perilla frutescens,” Plant J. 17(2):181-189 (1999), which is hereby incorporated by reference in its entirety). The reaction mixture (100 μl) contained 5 mM DTT, 4 mM sodium ascorbate, 1 mM 2-oxoglutaric acid, 0.4 mM FeSO4, 0.1 mg/ml catalase, 50 mM Tris-Cl pH8.0 or other buffer, 8-15 μg recombinant protein, various concentrations of SA. To determine the optimal temperature and pH for enzyme activity of S3H, the protein was incubated with 200 μM SA substrate in Tris-Cl buffer (pH8.0) at different temperatures for 15 min; or 500 μM SA substrate, in 50 mM Sodium citrate, Tris-Cl and Glycine buffers with different pH at 40° C. for 15 min. For enzyme kinetics analysis, various substrate SA concentrations ranging from 10 to 500 μM were used and the incubation proceeded for 6 min with pH 6.0. […] Mass spectra were recorded over 15 to 800 m/z in the negative mode. Km and Vmax were determined by Graphpad Prism 5 software using non-linear regression for Michaelis-Menten equation.

In data set [2] the test system is S3H. The note with it: 10 μM, Col-0 (Seedling), 3 hrs; cited from earlier work.
Data set [3] relates to S3H. The data set can be described thus: SA treatment of plants, RNA gel blot analysis of S3H expression. Type of data set: in vivo, Arabidopsis thaliana. The note with it: 5 mM SA spray, Col-0 plants 25 DAG, 6 hours. On the procedure: All chemicals used in this research were purchased from Sigma-Aldrich (St. Louis, Mo.), unless otherwise stated. Col-0 plants (25 DAG) were sprayed with 5 mM SA in 0.005% Silwet L-77 (Lehele Seeds, Tex.) or only 0.005% Silwet L-77 (mock). All rosette leaves of individual plants for RNA extraction were collected at different time points after the spray.
Total RNA extraction and RNA blot analysis were performed as described previously (He & Gan, “A Gene Encoding an Acyl Hydrolase Is Involved in Leaf Senescence in Arabidopsis,” Plant Cell 14(4):805-815 (2002), which is hereby incorporated by reference in its entirety). The DNA templates for probe labeling were amplified by the following different pairs of primers: S3H, G2956 and G2957; AtNAP, G3149 and G3150; SAG12, G10 and G246; SAG13, G9 and G16; EDS1, EDS1F and EDS1R; PAD4, PAD4F and PAD4R; PR1, PR1F and PR1R (FIG. 1E). The ethidium bromide staining of the RNA gels was used to show approximate amount of total RNA loading on each lane.

Substrate in data set [4]: O=C(O)c1ccccc1O
The data set can be described thus: Enzyme assay of recombinant S3H (substrate specificity and kinetics). Type of data set: biochemical, Arabidopsis thaliana. The settings on record: other: pH 6.0 and 40° C. for 6 min, mean ± SE of four replicates. On the procedure: as §1, §2

As for `Nc1ccccc1C(=O)O` [Anthranilic acid], the “S3H enzyme activity on substrate (in words)” value in data set [1] is given as “did not have detectable activity”.
On the same count and under the same terms, as for `O=C(O)c1ccccc1` [Benzoic acid], the entry is “did not have detectable activity”.
As to `O=C(O)c1ccccc1O` [Salicylic acid], in data set [1] (pH 6.0 and 40° C. for 30 min, mean ± SE of three replicates, n.d. = not detectable), the Specific activity amounted to 78.06 ± 9.75 nmol/mg/min. The “Induction folds of S3H” value in data set [2] is listed as 36.72. The “S3H expression after SA treatment (RNA gel blot)” value in data set [3] is given as “readily inducible”.

B1: recombinant S3H (Arabidopsis thaliana) (protein)
chain: MATSAISKLLVSDFASSVHIPSNYVRPISDRPNLSEVESSGDSIPLIDLRDLHGPNRAVIVQQLASACSTYGFFQIKNHGVPDTTVNKMQTVAREFFHQPESERVKHYSADPTKTTRLSTSFNVGADKVLNWRDFLRLHCFPIEDFIEEWPSSPISFREVTAEYATSVRALVLRLLEAISESLGLESDHISNILGKHAQHMAFNYYPPCPEPELTYGLPGHKDPTVITVLLQDQVSGLQVFKDDKWVAVSPIPNTFIVNIGDQMQVISNDKYKSVLHRAVVNTENERLSIPTFYFPSTDAVIGPAHELVNEQDSLAIYRTYPFVEYWDKFWNRSLATASCLDAFKAPTT
notes: His (N); made in house; host or cells: E. coli BL21 (DE3, pLys3)
The Km is the substrate concentration at which the rate is half of its maximum. For orientation: Vmax means the rate approached at saturating substrate. The term kcat/Km denotes the turnover number divided by the Michaelis constant. With B1, in data set [4], the Km turned out to be 58.29 µM, the Vmax turned out to be 0.498 µmol/min/mg and the kcat/Km amounted to 6090 M⁻¹ s⁻¹.

(Values after patent publication US9873889B2, “Increasing leaf longevity and disease resistance by altering salicylic acid catabolism” (priority 2013, dated 2018).)
